The record followed here is ChEMBL document CHEMBL1201862, “PubChem BioAssay data set” (2004).

Test systems include A549; HCT-15; Hs-578T; K562; KM12; LOX IMVI; MDA-MB-435; NCI-H226; OVCAR-4; OVCAR-5; SN12C; SNB-75; SR; SW-620; U-251; UACC-257; M14; SK-MEL-2; SNB-19.
Common to all, as to assay: DTP human tumour cell line panel, 48 h

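These data come from cells grown in 96-well plates and exposed to compound for 48 hours at five concentrations. GI50 = concentration required for 50% inhibition of growth.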 Activity calls are given as the source filed them. Cut-off read from the data, not from the text of the source: active = GI50 up to about 1.1 µM and inactive = higher. Bounds are passed on as bounds.

With `CCOC(=O)c1nc2ccccc2nc1NCc1cc(OC)c(OC)c(OC)c1`, the GI50 in the test on A549 is 37.8 µM (inactive); in the test with HCT-15, 30.3 µM; in the test with Hs-578T, 42.9 µM (inactive); in the test on K562 it was 27.8 µM (inactive); in the test with KM12 it was 34.4 µM (inactive); with LOX IMVI, 47 µM (inactive). The GI50 in the test with MDA-MB-435 was 20.3 µM (inactive); in the test on NCI-H226 it was 83 µM (inactive); in the test with OVCAR-4 it was 29.6 µM (inactive); with OVCAR-5, > 100 µM (inactive); with SN12C, 27.4 µM (inactive); in the test with SNB-75 it was 89.5 µM (inactive). For the same molecule, the GI50 in the test with SR is 37.8 µM (inactive); in the test with SW-620, 42.2 µM (inactive); in the test with U-251, 42.1 µM (inactive); in the test with UACC-257 it was 75 µM (inactive).

For the molecule `N#Cc1c(-c2ccccc2)c(C=O)c(=O)n2c1[nH]c1ccccc12`, the GI50 in the test on A549 was > 100 µM (inactive); with HCT-15, 70 µM; with Hs-578T it was 31.3 µM (inactive); in the test with K562, 67 µM (inactive); in the test on KM12, 60.1 µM (inactive); in the test on M14, 97.5 µM (inactive). Moreover, the GI50 in the test on MDA-MB-435 was 67.1 µM (inactive); with NCI-H226, 55.6 µM (inactive); with OVCAR-4, 20.5 µM (inactive); in the test with OVCAR-5, > 100 µM (inactive); in the test with SK-MEL-2, 33 µM (inactive); in the test on SN12C, 45.3 µM (inactive). Further, the GI50 in the test with SNB-19 is 50.7 µM (inactive); in the test with SNB-75, 22.1 µM (inactive); in the test with SR, 67.6 µM (inactive); in the test on SW-620, 42.6 µM (inactive); in the test on U-251, 50.8 µM (inactive); in the test on UACC-257 it was > 100 µM (inactive).

For `Cc1ccc(/N=N/c2c(O)c(C(=O)O)cc3ccccc23)cc1C`, the GI50 was > 100 µM (inactive) with A549; greater than 100 µM in the test on HCT-15; 42.3 µM (inactive) with Hs-578T; 82.6 µM (inactive) in the test with K562; > 100 µM (inactive) with KM12; > 100 µM (inactive) with M14. Besides, the GI50 with MDA-MB-435 is > 100 µM (inactive); with NCI-H226, > 100 µM (inactive); with OVCAR-4 it was > 100 µM (inactive); in the test with OVCAR-5 it was > 100 µM (inactive); in the test on SK-MEL-2 it was > 100 µM (inactive); in the test on SNB-19, 46.1 µM (inactive). Moreover, the GI50 in the test with SNB-75 is > 100 µM (inactive); in the test with SR, > 100 µM (inactive); in the test on SW-620 it was > 100 µM (inactive); in the test on U-251, 80.7 µM (inactive); in the test on UACC-257, > 100 µM (inactive).

As for `COC(=O)[C@@H]1C[C@@]23CCCN4CC[C@@]5(c6cccc(OC)c6N(C=O)[C@]15CC2)[C@@H]43`, the GI50 was > 100 µM (inactive) in the test with A549; greater than 100 µM in the test with HCT-15; > 100 µM (inactive) in the test on Hs-578T; > 100 µM (inactive) in the test on KM12; > 100 µM (inactive) in the test on LOX IMVI; > 100 µM (inactive) in the test on M14. The GI50 in the test with MDA-MB-435, with NCI-H226, in the test with OVCAR-4, with OVCAR-5, in the test on SK-MEL-2 and in the test on SN12C was > 100 µM (inactive) in each case. In addition, the GI50 was > 100 µM (inactive) with SNB-19; 78.7 µM (inactive) in the test with SNB-75; > 100 µM (inactive) in the test with SR; > 100 µM (inactive) in the test with SW-620; > 100 µM (inactive) with U-251; > 100 µM (inactive) in the test with UACC-257.

On to `CCOC(=S)SSSC(=S)OCC`, for which the GI50 in the test with A549 was 33.7 µM (inactive); in the test on HCT-15, 19.5 µM; in the test with Hs-578T, > 100 µM (inactive); in the test on K562, 26.3 µM (inactive); with KM12, 41.4 µM (inactive); in the test on LOX IMVI, 25.1 µM (inactive). The GI50 in the test on M14 is 27 µM (inactive); with MDA-MB-435, 54.3 µM (inactive); in the test on NCI-H226, 82.6 µM (inactive); with OVCAR-5, 28.6 µM (inactive); with SN12C, 21.6 µM (inactive); in the test on SNB-19, 65 µM (inactive). Also, the GI50 with SNB-75 is 28.2 µM (inactive); in the test with SR, 13.5 µM (inactive); with SW-620 it was 32.5 µM (inactive); in the test with U-251 it was 31.6 µM (inactive); in the test with UACC-257 it was 50.5 µM (inactive).

Consider `O=C(/C=C/c1ccccc1)OCC1=C[C@@H](O)[C@@H]2C=CO[C@@H](OC3OC(CO)C(O)C(O)C3O)[C@H]12` (stereo not given in full), for which the GI50 is > 100 µM (inactive) with A549; greater than 100 µM in the test on HCT-15; > 100 µM (inactive) in the test with Hs-578T; > 100 µM (inactive) in the test on KM12; > 100 µM (inactive) with LOX IMVI; > 100 µM (inactive) in the test with M14. Besides, the GI50 in the test on MDA-MB-435 was > 100 µM (inactive); in the test with NCI-H226 it was > 100 µM (inactive); in the test on OVCAR-4, 67.6 µM (inactive); in the test with OVCAR-5, > 100 µM (inactive); with SK-MEL-2 it was > 100 µM (inactive); in the test on SN12C, > 100 µM (inactive). Moreover, the GI50 was 95.9 µM (inactive) with SNB-19; > 100 µM (inactive) in the test on SNB-75; > 100 µM (inactive) with SR; > 100 µM (inactive) in the test with SW-620; > 100 µM (inactive) in the test with U-251; > 100 µM (inactive) in the test on UACC-257.

As to `CC(=O)OCC1=C(C(=O)O)N2C(=O)C(NC(=O)CSc3ccncc3)C2SC1` (stereo not given), the GI50 is > 100 µM (inactive) in the test on A549; greater than 100 µM in the test with HCT-15; > 100 µM (inactive) in the test with Hs-578T; > 100 µM (inactive) in the test on K562; > 100 µM (inactive) in the test on KM12; > 100 µM (inactive) with LOX IMVI. Besides, the GI50 with M14, in the test on MDA-MB-435, in the test on NCI-H226, in the test with OVCAR-5, in the test on SK-MEL-2 and with SN12C was > 100 µM (inactive) throughout. Besides, the GI50 in the test with SNB-19, in the test with SNB-75, with SR, in the test with SW-620, in the test with U-251 and with UACC-257 was > 100 µM (inactive) throughout.

As to `O=C1CCCCC/C1=C\c1ccc(Cl)cc1`, the GI50 was 36.1 µM (inactive) in the test with A549; 28.1 µM with HCT-15; 20.8 µM (inactive) with Hs-578T; 17.7 µM (inactive) in the test with KM12; 28.9 µM (inactive) with LOX IMVI; 34.4 µM (inactive) in the test on M14. Further, the GI50 was 20.6 µM (inactive) with MDA-MB-435; 81.1 µM (inactive) in the test with NCI-H226; 26.7 µM (inactive) in the test with OVCAR-4; 78.9 µM (inactive) with OVCAR-5; 34.8 µM (inactive) in the test with SK-MEL-2; 35.3 µM (inactive) in the test on SN12C. For the same molecule, the GI50 in the test on SNB-19 was 55.1 µM (inactive); in the test on SNB-75, 17 µM (inactive); in the test with SR, 23.1 µM (inactive); in the test on SW-620, 24.7 µM (inactive); in the test on U-251, 30 µM (inactive); in the test with UACC-257, 32.4 µM (inactive).

One may read the GI50 as the concentration at which growth is held to half of that of the control.
